Data as given in patent US20080009418A1, “Selective Inhibitors” (Alchemia LTD., priority 2004, published 2008).

Tests used:
Human δ-opioid (DOP) = biological target: T1, Human δ-opioid (DOP) (Homo sapiens, UniProt P41143); experiment: Radioligand binding, human δ-opioid (DOP) membranes, FlashPlate, [3H]-Bremazocine; conditions: compound at 10 μM, [3H]-Bremazocine; for A1: inhibition of radioligand binding: human DOP membranes
T1 construct: purchased Perkin Elmer Biosignal
How it was run: (§1)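 Cloned human receptor membranes were coated onto FlashPlate wells and incubated with radioligand and compound (added from a 0.5 mM DMSO daughter plate) for 1 hour at room temperature in the dark. Scintillation counting gave percent inhibition, with DMSO defining total and reference ligand defining non-specific binding.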

Human κ-Opioid (KOP) = biological target: T2, Human κ-Opioid (KOP) (Homo sapiens, UniProt P41145); experiment: Radioligand binding, human κ-opioid (KOP) membranes, filtration, [3H]-Diprenorphine; conditions: compound at 10 μM, [3H]-Diprenorphine; for A2: inhibition of radioligand binding: human KOP membranes
T2 construct: purchased Perkin Elmer Biosignal
How it was run: (§2)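 Percent inhibition of radioligand binding measured on recombinant human membranes: NK1 with [125I]-Substance P, KOP with [3H]-Diprenorphine. Incubation 1 h at room temperature, then harvest onto 0.3% PEI-soaked filters, cold Tris-HCl pH 7.4 washes and scintillation counting; non-specific binding from reference ligand wells.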

Human Melanocortin (MC3) = biological target: T3, Human Melanocortin (MC3) (Homo sapiens, UniProt P41968); experiment: Radioligand binding, human melanocortin MC3 membranes, FlashPlate, [125I]-NDP-αMSH; conditions: compound at 10 μM, [125I]-NDP-αMSH; for A3: inhibition of radioligand binding: human MC3 membranes
T3 construct: purchased Perkin Elmer Biosignal
How it was run: as §1

Human Melanocortin (MC4) = biological target: T4, Human Melanocortin (MC4) (Homo sapiens, UniProt P32245); experiment: Radioligand binding, human melanocortin MC4 membranes, FlashPlate, [125I]-NDP-αMSH; conditions: compound at 10 μM, [125I]-NDP-αMSH; for A4: inhibition of radioligand binding: human MC4 membranes, 10 µM
T4 construct: purchased Perkin Elmer Biosignal
How it was run: as §1

Human melanocortin (MC5) = biological target: T5, Human melanocortin (MC5) (Homo sapiens, UniProt P33032); experiment: Radioligand binding, human melanocortin MC5 membranes, FlashPlate, [125I]-NDP-αMSH; conditions: compound at 10 μM, [125I]-NDP-αMSH; for A5: inhibition of radioligand binding: human MC5 membranes
T5 construct: purchased Perkin Elmer Biosignal
How it was run: as §1

[1] = biological target: T6, Human melanin-concentrating hormone (MCH1) (Homo sapiens, UniProt Q99705); experiment: Radioligand binding, human melanin-concentrating hormone MCH1 membranes, FlashPlate, [125I]-S36057; conditions: compound at 10 μM; for A6: inhibition of radioligand binding: [125I]-S36057, human MCH1 membranes
T6 construct: purchased Perkin Elmer Biosignal
How it was run: as §1

Human μ-opioid (MOP) = biological target: T7, Human μ-opioid (MOP) (Homo sapiens, UniProt P35372); experiment: Radioligand binding, human μ-opioid (MOP) membranes, FlashPlate, [3H]-Naloxone; conditions: compound at 10 μM, [3H]-Naloxone; for A7: inhibition of radioligand binding: human MOP membranes
T7 construct: purchased Perkin Elmer Biosignal
How it was run: as §1

Human neurokinin (NK1) = biological target: T8, Human neurokinin (NK1) (Homo sapiens, UniProt P25103); experiment: Radioligand binding, human neurokinin NK1 membranes, filtration, [125I]-Substance P; conditions: compound at 10 μM, [125I]-Substance P; for A8: inhibition of radioligand binding: human NK1 membranes
T8 construct: purchased Perkin Elmer Biosignal
How it was run: as §2

[2] = biological target: T9, Human neuropeptide Y (NPY-Y1) (Homo sapiens, UniProt P25929); experiment: Radioligand binding, human neuropeptide Y NPY-Y1 membranes, FlashPlate, [125I]-PYY; conditions: compound at 10 μM, [125I]-PYY; for A9: inhibition of radioligand binding: human NPY-Y1 membranes
T9 construct: purchased Perkin Elmer Biosignal
T9 sequence (P25929 1-384): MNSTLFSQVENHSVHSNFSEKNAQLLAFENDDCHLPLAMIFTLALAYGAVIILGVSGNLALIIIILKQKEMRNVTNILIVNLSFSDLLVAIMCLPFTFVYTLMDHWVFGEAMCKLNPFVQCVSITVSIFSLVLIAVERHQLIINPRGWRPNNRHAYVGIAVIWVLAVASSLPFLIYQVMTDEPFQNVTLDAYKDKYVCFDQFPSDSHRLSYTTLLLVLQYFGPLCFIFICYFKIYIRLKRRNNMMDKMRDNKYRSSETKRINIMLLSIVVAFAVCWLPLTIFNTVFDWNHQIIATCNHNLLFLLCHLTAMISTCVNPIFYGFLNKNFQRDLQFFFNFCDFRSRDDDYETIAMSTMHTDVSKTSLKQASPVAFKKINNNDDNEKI
How it was run: as §1

Human opioid (ORL1) = biological target: T10, Human opioid (ORL1) (Homo sapiens, UniProt P41146); experiment: Radioligand binding, human opioid ORL1 membranes, FlashPlate, [125I]-Nociceptin; conditions: compound at 10 μM, [125I]-Nociceptin; for A10: inhibition of radioligand binding: human ORL1 membranes
T10 construct: purchased Perkin Elmer Biosignal
How it was run: as §1

Mouse urotensin (mUR2) = biological target: T11, Mouse urotensin (mUR2) (Mus musculus, UniProt Q8VIH9); experiment: Radioligand binding, mouse urotensin mUR2 membranes, FlashPlate, [125I]-Urotensin II; conditions: compound at 10 μM, [125I]-Urotensin II; for A11: inhibition of radioligand binding: mouse mUR2 membranes
T11 construct: purchased Perkin Elmer Biosignal
T11 sequence (Q8VIH9 1-385): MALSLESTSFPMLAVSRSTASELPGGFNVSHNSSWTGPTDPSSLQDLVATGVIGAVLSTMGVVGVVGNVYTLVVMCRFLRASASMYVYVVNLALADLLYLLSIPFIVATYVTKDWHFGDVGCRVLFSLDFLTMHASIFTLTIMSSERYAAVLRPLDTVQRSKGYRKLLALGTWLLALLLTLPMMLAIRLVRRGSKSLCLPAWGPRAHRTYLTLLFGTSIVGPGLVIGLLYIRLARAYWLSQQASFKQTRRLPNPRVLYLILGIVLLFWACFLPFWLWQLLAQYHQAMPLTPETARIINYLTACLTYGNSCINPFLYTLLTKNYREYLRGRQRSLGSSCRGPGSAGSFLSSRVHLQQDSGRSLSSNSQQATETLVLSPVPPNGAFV
How it was run: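 Cloned mouse urotensin (mUR2) receptor membranes from Perkin Elmer Biosignal were immobilized in FlashPlate microplates using a proprietary coating. Each well got 19.5 μl buffer, then 0.5 μl of DMSO, reference ligand, or compound. Adding 5 μl of [125I]-Urotensin II, diluted to 5× final concentration in binding buffer, started binding. Plates were sealed with TopSeal-A and incubated 1 hour at room temperature in the dark. Wells were counted for 30 seconds each on a TopCount after a 60-second delay, and percentage inhibition was calculated.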

T4 sequence (P32245 whole entry): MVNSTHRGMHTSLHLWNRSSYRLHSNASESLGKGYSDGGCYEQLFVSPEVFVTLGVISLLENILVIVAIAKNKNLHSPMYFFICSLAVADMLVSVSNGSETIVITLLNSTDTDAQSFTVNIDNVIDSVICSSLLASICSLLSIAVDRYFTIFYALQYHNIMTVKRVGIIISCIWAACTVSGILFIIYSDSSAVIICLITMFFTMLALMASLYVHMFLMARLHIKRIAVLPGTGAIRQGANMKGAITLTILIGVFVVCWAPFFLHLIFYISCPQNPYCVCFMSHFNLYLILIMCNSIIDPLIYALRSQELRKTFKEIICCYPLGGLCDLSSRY
T1 sequence (P41143 whole entry): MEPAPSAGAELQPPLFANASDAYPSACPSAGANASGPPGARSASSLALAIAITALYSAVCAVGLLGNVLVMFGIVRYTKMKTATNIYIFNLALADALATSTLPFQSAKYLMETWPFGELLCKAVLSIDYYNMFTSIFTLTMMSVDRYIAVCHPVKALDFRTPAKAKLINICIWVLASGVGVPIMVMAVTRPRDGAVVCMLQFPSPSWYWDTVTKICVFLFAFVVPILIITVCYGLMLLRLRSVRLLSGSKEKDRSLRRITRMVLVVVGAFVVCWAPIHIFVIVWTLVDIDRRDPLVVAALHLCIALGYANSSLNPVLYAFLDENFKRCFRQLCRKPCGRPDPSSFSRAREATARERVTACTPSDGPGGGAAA
T7 sequence (P35372 whole entry): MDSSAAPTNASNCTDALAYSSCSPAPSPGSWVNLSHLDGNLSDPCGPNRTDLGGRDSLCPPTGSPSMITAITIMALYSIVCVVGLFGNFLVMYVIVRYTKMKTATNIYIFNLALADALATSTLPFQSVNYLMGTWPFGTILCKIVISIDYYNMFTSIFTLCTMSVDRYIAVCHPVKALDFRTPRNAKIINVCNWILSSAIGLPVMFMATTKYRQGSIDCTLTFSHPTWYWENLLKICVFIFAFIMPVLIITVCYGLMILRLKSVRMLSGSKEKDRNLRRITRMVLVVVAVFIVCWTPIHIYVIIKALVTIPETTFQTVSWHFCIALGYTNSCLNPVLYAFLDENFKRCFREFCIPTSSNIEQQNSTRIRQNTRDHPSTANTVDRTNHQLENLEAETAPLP
T3 sequence (P41968 whole entry): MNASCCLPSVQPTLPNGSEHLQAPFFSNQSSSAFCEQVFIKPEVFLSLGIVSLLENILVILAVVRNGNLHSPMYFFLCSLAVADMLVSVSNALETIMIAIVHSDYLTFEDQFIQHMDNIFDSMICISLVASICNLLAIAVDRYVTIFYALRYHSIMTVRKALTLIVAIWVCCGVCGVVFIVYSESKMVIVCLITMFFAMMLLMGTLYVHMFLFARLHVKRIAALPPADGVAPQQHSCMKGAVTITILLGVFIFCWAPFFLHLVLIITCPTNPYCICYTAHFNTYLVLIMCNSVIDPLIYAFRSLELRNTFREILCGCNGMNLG
T10 sequence (P41146 whole entry): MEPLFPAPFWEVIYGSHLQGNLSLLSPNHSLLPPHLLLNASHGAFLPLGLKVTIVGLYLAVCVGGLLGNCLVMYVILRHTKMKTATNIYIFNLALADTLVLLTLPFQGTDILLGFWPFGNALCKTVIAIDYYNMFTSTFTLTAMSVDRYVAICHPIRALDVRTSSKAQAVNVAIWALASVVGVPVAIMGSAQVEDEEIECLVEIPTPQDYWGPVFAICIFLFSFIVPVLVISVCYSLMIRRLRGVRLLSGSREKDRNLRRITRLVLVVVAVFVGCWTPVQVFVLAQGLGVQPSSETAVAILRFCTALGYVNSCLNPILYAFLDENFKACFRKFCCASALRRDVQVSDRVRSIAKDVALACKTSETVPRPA
T2 sequence (P41145 whole entry): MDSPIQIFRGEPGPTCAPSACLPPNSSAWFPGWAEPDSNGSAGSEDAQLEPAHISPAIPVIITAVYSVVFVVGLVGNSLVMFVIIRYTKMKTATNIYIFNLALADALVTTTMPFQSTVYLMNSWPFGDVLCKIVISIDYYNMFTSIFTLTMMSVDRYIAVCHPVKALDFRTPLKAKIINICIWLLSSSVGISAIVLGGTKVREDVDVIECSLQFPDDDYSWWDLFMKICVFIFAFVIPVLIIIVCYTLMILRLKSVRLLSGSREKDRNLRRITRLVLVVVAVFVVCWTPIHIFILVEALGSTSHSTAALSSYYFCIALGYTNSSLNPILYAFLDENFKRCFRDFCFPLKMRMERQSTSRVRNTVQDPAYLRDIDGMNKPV
T5 sequence (P33032 whole entry): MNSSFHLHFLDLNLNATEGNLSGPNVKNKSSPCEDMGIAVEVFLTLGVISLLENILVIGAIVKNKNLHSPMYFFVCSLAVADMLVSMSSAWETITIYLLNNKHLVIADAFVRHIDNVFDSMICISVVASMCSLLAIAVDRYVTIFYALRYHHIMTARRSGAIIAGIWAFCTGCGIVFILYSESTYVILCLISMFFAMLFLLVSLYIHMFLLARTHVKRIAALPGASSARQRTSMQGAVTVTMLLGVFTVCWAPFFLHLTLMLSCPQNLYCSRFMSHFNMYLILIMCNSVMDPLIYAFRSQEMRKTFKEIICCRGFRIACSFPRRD
T6 sequence (Q99705 whole entry): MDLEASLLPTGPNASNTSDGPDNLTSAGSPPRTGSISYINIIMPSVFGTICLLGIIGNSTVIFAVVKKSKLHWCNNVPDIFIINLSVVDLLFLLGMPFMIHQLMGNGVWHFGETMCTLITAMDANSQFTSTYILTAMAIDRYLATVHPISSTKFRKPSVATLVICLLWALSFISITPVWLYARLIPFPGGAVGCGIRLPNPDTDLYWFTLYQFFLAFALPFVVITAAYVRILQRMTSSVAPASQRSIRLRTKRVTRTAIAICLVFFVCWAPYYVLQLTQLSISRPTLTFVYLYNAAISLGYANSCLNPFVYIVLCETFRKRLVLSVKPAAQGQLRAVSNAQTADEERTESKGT
T8 sequence (P25103 whole entry): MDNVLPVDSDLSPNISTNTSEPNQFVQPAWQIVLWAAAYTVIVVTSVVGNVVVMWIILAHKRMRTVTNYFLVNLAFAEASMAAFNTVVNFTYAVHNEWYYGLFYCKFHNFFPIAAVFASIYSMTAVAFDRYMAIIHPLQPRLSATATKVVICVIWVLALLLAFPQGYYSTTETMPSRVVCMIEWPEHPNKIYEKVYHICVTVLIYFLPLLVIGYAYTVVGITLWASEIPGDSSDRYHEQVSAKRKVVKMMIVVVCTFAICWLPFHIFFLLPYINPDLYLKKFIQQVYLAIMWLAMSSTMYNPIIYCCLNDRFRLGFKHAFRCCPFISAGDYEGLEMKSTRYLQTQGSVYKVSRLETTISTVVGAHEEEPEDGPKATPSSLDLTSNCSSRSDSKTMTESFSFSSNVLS

Compound | A1: inhibition of radioligand binding (Human δ-opioid (DOP)) | A2: inhibition of radioligand binding (Human κ-Opioid (KOP)) | A4: inhibition of radioligand binding (Human Melanocortin (MC4)) | A5: inhibition of radioligand binding (Human melanocortin (MC5)) | A7: inhibition of radioligand binding (Human μ-opioid (MOP)) | A8: inhibition of radioligand binding (Human neurokinin (NK1)) | A9: inhibition of radioligand binding [2] | A11: inhibition of radioligand binding (Mouse urotensin (mUR2)) | A1 radioligand binding, percentage inhibition (Human δ-opioid (DOP)) | A2 radioligand binding, percentage inhibition (Human κ-Opioid (KOP)) | A3 radioligand binding, percentage inhibition (Human Melanocortin (MC3)) | A4 radioligand binding, percentage inhibition (Human Melanocortin (MC4)) | A5 radioligand binding, percentage inhibition (Human melanocortin (MC5)) | A6 radioligand binding, percentage inhibition ([1]; [125I]-S36057) | A7 radioligand binding, percentage inhibition (Human μ-opioid (MOP)) | A8 radioligand binding, percentage inhibition (Human neurokinin (NK1)) | A9 radioligand binding, percentage inhibition [2] | A10 radioligand binding, percentage inhibition (Human opioid (ORL1)) | A11 radioligand binding, percentage inhibition (Mouse urotensin (mUR2)) | other results
COC[C@H]1OC(OCc2ccc3ccccc3c2)[C@H](NC(=O)CCCN)[C@@H](OCc2ccc(-c3ccccc3)cc2)[C@@H]1O (stereo partly shown) [compound 337] |  |  |  |  |  |  |  |  |  |  |  |  |  |  |  |  |  |  |  | A1: inhibition of radioligand binding, human δ-opioid (DOP) (Human δ-opioid (DOP)): − (“−” indicates less than 50% inhibition at 10 μM); A2: inhibition of radioligand binding, human κ-opioid (KOP) (Human κ-Opioid (KOP)): − (“−” indicates less than 50% inhibition at 10 μM); A3: inhibition of radioligand binding, human melanocortin (MC3) (Human Melanocortin (MC3)): − (“−” indicates less than 50% inhibition at 10 μM); A4: inhibition of radioligand binding, human melanocortin (MC4) (Human Melanocortin (MC4)): − (“−” indicates less than 50% inhibition at 10 μM); A5: inhibition of radioligand binding, human melanocortin (MC5) (Human melanocortin (MC5)): + (“+” indicates greater than 50% inhibition at 10 μM); A6: inhibition of radioligand binding, human melanin-concentrating hormone (MCH1) ([1]; [125I]-S36057): + (“+” indicates greater than 50% inhibition at 10 μM); A7: inhibition of radioligand binding, human μ-opioid (MOP) (Human μ-opioid (MOP)): + (“+” indicates greater than 50% inhibition at 10 μM); A8: inhibition of radioligand binding, human neurokinin (NK1) (Human neurokinin (NK1)): + (“+” indicates greater than 50% inhibition at 10 μM); A9: inhibition of radioligand binding, human neuropeptide Y (NPY-Y1) [2]: − (“−” indicates less than 50% inhibition at 10 μM); A10: inhibition of radioligand binding, human opioid (ORL1) (Human opioid (ORL1)): − (“−” indicates less than 50% inhibition at 10 μM); A11: inhibition of radioligand binding, mouse urotensin (mUR2) (Mouse urotensin (mUR2)): − (“−” indicates less than 50% inhibition at 10 μM)
NCCCC(=O)NC1C(OCc2ccc3ccccc3c2)OC(COCc2ccccc2)C(O)C1OCc1ccc2ccccc2c1 (stereo not shown) [compound 462] | − (“−” indicates less than 50% inhibition at 10 μM) | − (“−” indicates less than 50% inhibition at 10 μM) | − (“−” indicates less than 50% inhibition at 10 μM) | + (“+” indicates greater than 50% inhibition at 10 μM) | − (“−” indicates less than 50% inhibition at 10 μM) | + (“+” indicates greater than 50% inhibition at 10 μM) | − (“−” indicates less than 50% inhibition at 10 μM) | − (“−” indicates less than 50% inhibition at 10 μM) |  |  |  |  |  |  |  |  |  |  |  | A3: inhibition of radioligand binding (Human Melanocortin (MC3); 10 µM): − (“−” indicates less than 50% inhibition at 10 μM); A6: inhibition of radioligand binding [1]: − (“−” indicates less than 50% inhibition at 10 μM); A10: inhibition of radioligand binding (Human opioid (ORL1); 10 µM): + (“+” indicates greater than 50% inhibition at 10 μM)
CO[C@H]1[C@H](O)[C@@H](COCc2ccc(Cl)cc2)OC(OCCc2ccccc2)[C@@H]1NC(=O)CCCNC(=N)N (stereo partly shown) [compound 122] |  |  |  |  |  |  |  |  | − (“−” indicates less than 50% inhibition at 10 μM) | − (“−” indicates less than 50% inhibition at 10 μM) | − (“−” indicates less than 50% inhibition at 10 μM) | + (“+” indicates greater than 50% inhibition at 10 μM) | + (“+” indicates greater than 50% inhibition at 10 μM) | − (“−” indicates less than 50% inhibition at 10 μM) | − (“−” indicates less than 50% inhibition at 10 μM) | + (“+” indicates greater than 50% inhibition at 10 μM) | − (“−” indicates less than 50% inhibition at 10 μM) | − (“−” indicates less than 50% inhibition at 10 μM) | − (“−” indicates less than 50% inhibition at 10 μM) | 
COC[C@H]1OC(OCc2ccc(-c3ccccc3)cc2)[C@H](NC(=O)CCNC(=N)N)[C@@H](OCc2cccc(O)c2)[C@@H]1O (stereo partly shown) [compound 130] |  |  |  |  |  |  |  |  | − (“−” indicates less than 50% inhibition at 10 μM) | − (“−” indicates less than 50% inhibition at 10 μM) | − (“−” indicates less than 50% inhibition at 10 μM) | − (“−” indicates less than 50% inhibition at 10 μM) | − (“−” indicates less than 50% inhibition at 10 μM) | − (“−” indicates less than 50% inhibition at 10 μM) | + (“+” indicates greater than 50% inhibition at 10 μM) | − (“−” indicates less than 50% inhibition at 10 μM) | − (“−” indicates less than 50% inhibition at 10 μM) | − (“−” indicates less than 50% inhibition at 10 μM) | − (“−” indicates less than 50% inhibition at 10 μM) | 
NCCC(=O)NC1C(OCc2ccc(Cl)cc2)OC(COCc2ccc3ccccc3c2)C(O)C1OCc1ccc(Cl)cc1 (single isomer, unassigned) [compound 472] | − (“−” indicates less than 50% inhibition at 10 μM) | − (“−” indicates less than 50% inhibition at 10 μM) | + (“+” indicates greater than 50% inhibition at 10 μM) | + (“+” indicates greater than 50% inhibition at 10 μM) | − (“−” indicates less than 50% inhibition at 10 μM) | + (“+” indicates greater than 50% inhibition at 10 μM) | − (“−” indicates less than 50% inhibition at 10 μM) | − (“−” indicates less than 50% inhibition at 10 μM) |  |  |  |  |  |  |  |  |  |  |  | A3: inhibition of radioligand binding (Human Melanocortin (MC3)): + (“+” indicates greater than 50% inhibition at 10 μM); A6: inhibition of radioligand binding ([1]; 10 µM): + (“+” indicates greater than 50% inhibition at 10 μM); A10: inhibition of radioligand binding (Human opioid (ORL1)): − (“−” indicates less than 50% inhibition at 10 μM)
